This is an account of results in patent US20240376101A1, “SUBSTITUTED 1,4-DIHYDRO-1,6-NAPHTHYRIDINE AMIDE AND USE THEREOF” (Tuojie Biotech (Shanghai) Co., Ltd., priority 2021, published 2024).

In series [1] the target is T1, mineralocorticoid receptors (Homo sapiens, UniProt P08235).
T1 construct: expressed in transfected cells; host or cells: HEK293T
T1 sequence (P08235 726-964 limits assumed): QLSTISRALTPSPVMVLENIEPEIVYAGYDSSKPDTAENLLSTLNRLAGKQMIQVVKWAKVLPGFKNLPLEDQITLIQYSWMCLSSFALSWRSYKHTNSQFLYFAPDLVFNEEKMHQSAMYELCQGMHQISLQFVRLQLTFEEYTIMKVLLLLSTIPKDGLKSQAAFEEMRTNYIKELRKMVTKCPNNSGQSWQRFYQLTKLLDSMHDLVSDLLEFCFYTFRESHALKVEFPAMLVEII
Put plainly: Assay for in-vitro antagonistic activity against mineralocorticoid receptors (Gal4-MR LBD luciferase reporter in HEK293T cells, 1 nM aldosterone). It is filed as cell-based. From the text:
In in-vitro activity assays of compounds in the disclosure, the characteristic of luciferase binding to the substrate to cause a chemiluminescence reaction can be utilized to transfect human embryonic kidney cells (HEK293T) with a plasmid comprising the mineralocorticoid receptor ligand binding domain (LBD) and fused with the Gal4 DNA-binding domain (DBD) and a firefly luciferase reporter gene plasmid under the control of Gal4 UAS (upstream activation sequence). The influence of the presence of stimulation or different stimuli on mineralocorticoid receptor activity is judged by the level of firefly luciferase activity.
Test Example 1: Assay for In-Vitro Antagonistic Activity Against Mineralocorticoid Receptors
All the compounds to be tested were serially diluted 3-fold from 10 mM with DMSO (Sigma, D8418), and 10 concentrations were obtained for each of the compounds.
The reference compound eplerenone was serially diluted 3-fold with DMSO to form 10 concentrations.
A 1000× positive control (10 mM eplerenone) and a 1000× negative control (100% DMSO) were prepared.
• 2.1. All cells were cultured as recommended by ATCC. HEK293T cells were passaged and plated when in the exponential growth phase. • 2.2. The old culture medium in the cell culture flask was discarded, and the cells were washed with PBS. • 2.3. A proper amount of TrypLE solution was added to the culture flask to digest the cells to separate them, and the digestion was stopped with a serum-containing complete culture medium. • 2.4. The cell suspension was centrifuged to make the cells settle. The cells were washed with PBS 2 times to remove phenol red and were then suspended with culture medium to a proper concentration (only cells with a survival rate of greater than 90% were used in the subsequent experiments). • 2.5. 6×10^6 HEK293T cells were spread on a 100 mm Petri dish and incubated in a 37° C., 5% CO2 incubator for 16 h. • 2.6. The cells were transfected with plasmids and then incubated in a 37° C., 5% CO2 incubator for another 5-6 h. • 2.7. 25 nL of compound dilution was transferred to a 384-well assay plate using Echo655. • 2.8. HEK293T cells were plated at a concentration of 17,000 cells/well in a 384-well plate, and meanwhile 1 nM aldosterone was added to each well. • 2.9. The cells were incubated in a 37° C., 5% CO2 incubator for 18-20 h. • 2.10. 25 μL of britelite+luciferase assay reagent was added to each well of the 384-well assay plate, and luminescence values were recorded on an Envision 2105 plate reader. • 2.11. The IC50 values of the compounds were obtained using the software Graphad 8.0 and a non-linear fitting equation.
For orientation: A reporter such as luciferase makes a cellular process visible.

In series [2] the test system is db/db mice (idiopathic type II diabetes model mice). The series can be described thus: Efficacy test with db/db mouse model of diabetic nephropathy. The settings on record: for UACR / Urine creatinine / Urine weight / mALB: Mean±SEM; for mALB compared to the model control group / urine albumin-to-creatinine ratio (UACR) compared to the model control group / urine amount compared to the model control group: after 4 weeks of administration, in words. The class given is in vivo. On the procedure: Test Example 3: Efficacy Test with db/db Mouse Model of Diabetic Nephropathy
Proper amounts of compound 2-2 and finerenone were taken and separately mixed with a 0.5% hydroxyethyl cellulose solution (Tylose MH300) to form suspensions.
30 db/db mice (idiopathic type II diabetes model mice) were selected and divided into a model control group, a positive control group, and an administration group, and 10 db/m mice were selected as a control group.
The mice were dosed by oral gavage (i.g) once daily over 4 consecutive weeks. The dosing regimen is shown in detail in Table 4.
Urine albumin was used as a main measure. The data obtained were analyzed statistically using EXCEL and IBM SPSS Statistics 22.0.
All metrology data are expressed as Mean±SEM s. The parameters before and after dosing were plotted for the different groups of animals using the software Graph Pad Prism 8. Data were analyzed using the statistical software SPSS 22.0. A Levene's test of homogeneity of variance was performed on the parameters. When the variance was homogenous (P≥0.05), the Dunnett's & LSD method from the one-way analysis of variance (ANOVA) was used to compare the differences between the groups. When the variance was not homogenous (P<0.05), the Mann-Whitney U test (the M-W method) from the Kruskal-Wallis H test (the K-W method) was used to compare the differences between the groups. For animal survival, the log-rank test from the product-limit method (the K-M method) was used to compare the differences between the groups.

Series [3] is described as follows: Human liver microsome metabolism study. The following applies: human liver microsomes. It is filed as in vitro ADME. On the procedure:
Test Example 2: Human Liver Microsome Metabolism Study
222.5 μL of human liver microsomes (protein concentration: 1 mg/mL) and 25 μL of NADPH ([…]) were added to an incubation plate and pre-heated for 10 min. 2.5 μL of control compound and test compound (100 μM) were added.
30-μL aliquots were taken from the reaction solution at 0.5, 5, 10, 15, 20, and 30 min. The reaction was stopped by adding 5 volumes of cold acetonitrile containing IS (100 nM alprazolam, 200 nM caffeine, and 100 nM tolbutamide). The reaction solution was centrifuged, and 100 μL of the supernatant was collected and mixed with 100 μL of ultrapure H2O before analysis by LC-MS/MS.
The slope value k was determined by linear regression of the natural logarithm of a curve of the parent drug remaining percentage versus incubation time.
The in-vitro half-life (in-vitro T1/2) was determined by the slope value:
Using the following equation (the average of repeated measurements), the in-vitro T½ (min) was converted to in-vitro intrinsic clearance (in-vitro CLint, in μL/min/mg protein): […]
(In general: Microsomes from liver hold many membrane-bound enzymes, among them those of drug oxidation.)

The mark [4] stands for this setting: 15 mg/kg i.g. once daily, 4 weeks.

Turning to `CCOc1ncc(C)c2c1C(c1cc(C)c(C#N)cc1OC)C(C(N)=O)=C(C)N2` (centres unmarked) [Compound 6], the half-inhibitory concentration (IC50) in series [1] is 10 nM.
Same read-out and setting: next, `CCOc1nc(Cl)cc2c1C(c1ccc(C#N)cc1OC)C(C(N)=O)=C(C)N2` (centres unmarked) [Compound 5]: 5 nM.
For `CCOc1ncc(C)c2c1[C@H](c1ccc(C#N)cc1OC)C(C(N)=O)=C(C)N2` [Finerenone], the UACR in series [2] (0 weeks (before dosing)) is 5538.19 µg/mg; in series [2] (setting [4]) it was 4294.14 µg/mg. Besides, the figures for the Urine creatinine in series [2] (0 weeks (before dosing)) and in series [2] (setting [4]) were 0.37 μmol/24 h and 2.11 μmol/24 h, respectively. The Urine weight in series [2] (0 weeks (before dosing)) was 2.86 mL; in series [2] (setting [4]) it was 11.96 mL. Moreover, the figures for the mALB in series [2] (0 weeks (before dosing)) and in series [2] (setting [4]) were 226.68 μg/24 h and 1,013.76 μg/24 h, respectively. Also, the “mALB compared to the model control group” value in series [2] is listed as “tended to be lower than those in the model control group”. The “urine albumin-to-creatinine ratio (UACR) compared to the model control group” value in series [2] is given as “decreased somewhat but is not significantly different from that of the mice in the model group”. Besides, the “urine amount compared to the model control group” value in series [2] is “tended to be lower than those in the model control group”. The Remaining amount % in series [3] (0.5 min) was found to be 100.00%; in series [3] (5 min), 67.31%; in series [3] (10 min), 42.44%; in series [3] (15 min) it was 24.78%; in series [3] (20 min), 16.62%; in series [3] (30 min) it was 7.44%. Further, the half-life at 1 μM in series [3] (in-vitro half-life) stood at 7.4 min. Moreover, the microsomal CLint at 1 μM in series [3] (in-vitro intrinsic clearance) was determined as 93.7 µL/min/mg. Also, inhibition in series [1] was half-maximal at 13 nM (IC50).
Take `[2H]C([2H])([2H])C([2H])([2H])Oc1ncc(C)c2c1C(c1ccc(C#N)cc1OC)C(C(N)=O)=C(C)N2` (centres unmarked) [Compound 3]: in series [1], half-maximal inhibition (IC50) was put at 17 nM.
For the compound `[2H]C([2H])([2H])Oc1cc(C#N)ccc1C1C(C(N)=O)=C(C)Nc2c(C)cnc(OCC)c21` (centres unmarked) [Compound 2], in series [2], the “mALB compared to the model control group” value is listed as “tended to be lower than those in the model control group”, the “urine albumin-to-creatinine ratio (UACR) compared to the model control group” value is on record as “statistically significantly smaller than that of the mice in the model control group (P<0.01)” and the “urine amount compared to the model control group” value was “tended to be lower than those in the model control group”. This compound yielded a half-maximal inhibitory concentration (IC50) in series [1] of 7 nM.
For `COc1cc(C#N)ccc1C1C(C(N)=O)=C(C)Nc2c(C)cnc(OCCSC)c21` (centres unmarked) [Compound 1], the IC50 in series [1] was found to be 16 nM. In other words, the double-digit nanomolar range.
The same measure, in the same setting: next, `CCOc1ncc(Cl)c2c1C(c1ccc(C#N)cc1OC)C(C(N)=O)=C(C)N2` (centres unmarked) [Compound 4]: 11 nM.

For orientation: IC50 means the concentration that gives 50% inhibition. Low values mean greater potency in that assay, high ones weaker potency in that assay. For orientation: half-life means how long it takes for the measured level to halve. For orientation: microsomal CLint means the capacity of the preparation to metabolise the compound, expressed as a volume cleared per time.
